Results published in PubChem BioAssay AID1259407 (Chemical Carcinogenesis Research Information System (CCRIS), 2018).
Active and inactive are the calls of the source. No rule for the calls is given here.

Test system: CCRIS mutagenicity, Ames/micronucleus/aberration tests
Assay: CCRIS mutagenicity studies
[1] = Test System: AMES SALMONELLA TYPHIMURIUM, Strain/Indicator: TA98, Metabolic Activation: HAMSTER, LIVER, S-9, AROCLOR 1254 (10%), Method: PREINCUBATION
[2] = Test System: AMES SALMONELLA TYPHIMURIUM, Strain/Indicator: TA98, Metabolic Activation: NONE, Method: PREINCUBATION
[3] = Test System: AMES SALMONELLA TYPHIMURIUM, Strain/Indicator: TA98, Metabolic Activation: RAT, LIVER, S-9, AROCLOR 1254 (10%), Method: PREINCUBATION
[4] = Test System: AMES SALMONELLA TYPHIMURIUM, Strain/Indicator: TA100, Metabolic Activation: HAMSTER, LIVER, S-9, AROCLOR 1254 (10%), Method: PREINCUBATION
[5] = Test System: AMES SALMONELLA TYPHIMURIUM, Strain/Indicator: TA100, Metabolic Activation: NONE, Method: PREINCUBATION
[6] = Test System: AMES SALMONELLA TYPHIMURIUM, Strain/Indicator: TA100, Metabolic Activation: RAT, LIVER, S-9, AROCLOR 1254 (10%), Method: PREINCUBATION
[7] = Test System: AMES SALMONELLA TYPHIMURIUM, Strain/Indicator: TA1535, Metabolic Activation: NONE, Method: PREINCUBATION
[8] = Test System: AMES SALMONELLA TYPHIMURIUM, Strain/Indicator: TA1537, Metabolic Activation: NONE, Method: PREINCUBATION
[9] = Test System: AMES SALMONELLA TYPHIMURIUM, Strain/Indicator: TA1537, Metabolic Activation: NONE, Method: STANDARD PLATE

## Nc1ccc(Cl)cc1Cl
Test System: AMES SALMONELLA TYPHIMURIUM, Strain/Indicator: TA97, Metabolic Activation: HAMSTER, LIVER, S-9, AROCLOR 1254 (10 OR 30%), Method: PREINCUBATION
  mutagenic call: inactive; negative
Test System: AMES SALMONELLA TYPHIMURIUM, Strain/Indicator: TA97, Metabolic Activation: NONE, Method: PREINCUBATION
  mutagenic call: inactive; negative
Test System: AMES SALMONELLA TYPHIMURIUM, Strain/Indicator: TA97, Metabolic Activation: RAT, LIVER, S-9, AROCLOR 1254 (10 OR 30%), Method: PREINCUBATION
  mutagenic call: inactive; negative
[1]
  mutagenic call: inactive; negative
Test System: AMES SALMONELLA TYPHIMURIUM, Strain/Indicator: TA98, Metabolic Activation: HAMSTER, LIVER, S-9, AROCLOR 1254 (30%), Method: PREINCUBATION
  mutagenic call: inactive; negative
[2]
  mutagenic call: inactive; negative
Test System: AMES SALMONELLA TYPHIMURIUM, Strain/Indicator: TA98, Metabolic Activation: RAT, LIVER, S-9, AROCLOR 1254 (5 OR 30%), Method: PREINCUBATION
  mutagenic call: inactive; negative
[3]
  mutagenic call: inactive; negative
Test System: AMES SALMONELLA TYPHIMURIUM, Strain/Indicator: TA100, Metabolic Activation: HAMSTER, LIVER, S-9, AROCLOR 1254 (5%), Method: PREINCUBATION
  mutagenic call: inactive; negative
[4]
  mutagenic call: inactive; negative
Test System: AMES SALMONELLA TYPHIMURIUM, Strain/Indicator: TA100, Metabolic Activation: HAMSTER, LIVER, S-9, AROCLOR 1254 (30%), Method: PREINCUBATION
  mutagenic call: inactive; negative
[5]
  mutagenic call: inactive; negative
[6]
  mutagenic call: inactive; negative
Test System: AMES SALMONELLA TYPHIMURIUM, Strain/Indicator: TA100, Metabolic Activation: RAT, LIVER, S-9, AROCLOR 1254 (30%), Method: PREINCUBATION
  mutagenic call: inactive; negative
Test System: AMES SALMONELLA TYPHIMURIUM, Strain/Indicator: TA1535, Metabolic Activation: HAMSTER, LIVER, S-9, AROCLOR 1254 (10 OR 30%), Method: PREINCUBATION
  mutagenic call: inactive; negative
[7]
  mutagenic call: inactive; negative
Test System: AMES SALMONELLA TYPHIMURIUM, Strain/Indicator: TA1535, Metabolic Activation: RAT, LIVER, S-9, AROCLOR 1254 (10 OR 30%), Method: PREINCUBATION
  mutagenic call: inactive; negative
Test System: AMES SALMONELLA TYPHIMURIUM, Strain/Indicator: TA1537, Metabolic Activation: HAMSTER, LIVER, S-9, AROCLOR 1254 (30%), Method: PREINCUBATION
  mutagenic call: inactive; negative
[8]
  mutagenic call: inactive; negative
Test System: AMES SALMONELLA TYPHIMURIUM, Strain/Indicator: TA1537, Metabolic Activation: RAT, LIVER, S-9, AROCLOR 1254 (30%), Method: PREINCUBATION
  mutagenic call: inactive; negative

## Cc1cc(-c2ccc(N=Nc3cc(S(=O)(=O)O)c4ccccc4c3N)c(C)c2)ccc1N=Nc1cc(S(=O)(=O)O)c2ccccc2c1N
Test System: AMES SALMONELLA TYPHIMURIUM, Strain/Indicator: SV50, Metabolic Activation: HAMSTER, LIVER, S-9, Method: PREINCUBATION (PRIVAL METHOD)
  mutagenic call: active; positive
Test System: AMES SALMONELLA TYPHIMURIUM, Strain/Indicator: SV50, Metabolic Activation: RAT, LIVER, S-9, AROCLOR 1254, Method: PREINCUBATION (PRIVAL METHOD)
  mutagenic call: active; positive
[1]
  mutagenic call: inactive; negative
Test System: AMES SALMONELLA TYPHIMURIUM, Strain/Indicator: TA98, Metabolic Activation: HAMSTER, LIVER, S-9, AROCLOR 1254, Method: STANDARD PLATE
  mutagenic call: inactive; negative
Test System: AMES SALMONELLA TYPHIMURIUM, Strain/Indicator: TA98, Metabolic Activation: HAMSTER, LIVER, S-9, Method: PREINCUBATION (PRIVAL METHOD)
  mutagenic call: active; positive
[2]
  mutagenic call: inactive; negative
Test System: AMES SALMONELLA TYPHIMURIUM, Strain/Indicator: TA98, Metabolic Activation: NONE, Method: STANDARD PLATE
  mutagenic call: inactive; negative
[3]
  mutagenic call: inactive; negative
Test System: AMES SALMONELLA TYPHIMURIUM, Strain/Indicator: TA98, Metabolic Activation: RAT, LIVER, S-9, AROCLOR 1254, Method: PREINCUBATION (PRIVAL METHOD)
  mutagenic call: active; positive
Test System: AMES SALMONELLA TYPHIMURIUM, Strain/Indicator: TA98, Metabolic Activation: RAT, LIVER, S-9, AROCLOR 1254, Method: STANDARD PLATE
  mutagenic call: inactive; negative
[4]
  mutagenic call: inactive; negative
Test System: AMES SALMONELLA TYPHIMURIUM, Strain/Indicator: TA100, Metabolic Activation: HAMSTER, LIVER, S-9, AROCLOR 1254, Method: STANDARD PLATE
  mutagenic call: inactive; negative
[5]
  mutagenic call: inactive; negative
Test System: AMES SALMONELLA TYPHIMURIUM, Strain/Indicator: TA100, Metabolic Activation: NONE, Method: STANDARD PLATE
  mutagenic call: inactive; negative
[6]
  mutagenic call: inactive; negative
Test System: AMES SALMONELLA TYPHIMURIUM, Strain/Indicator: TA100, Metabolic Activation: RAT, LIVER, S-9, AROCLOR 1254, Method: STANDARD PLATE
  mutagenic call: inactive; negative
Test System: AMES SALMONELLA TYPHIMURIUM, Strain/Indicator: TA1535, Metabolic Activation: HAMSTER, LIVER, S-9, AROCLOR 1254 (10%), Method: PREINCUBATION
  mutagenic call: inactive; negative
Test System: AMES SALMONELLA TYPHIMURIUM, Strain/Indicator: TA1535, Metabolic Activation: HAMSTER, LIVER, S-9, AROCLOR 1254, Method: STANDARD PLATE
  mutagenic call: inactive; negative
[7]
  mutagenic call: inactive; negative
Test System: AMES SALMONELLA TYPHIMURIUM, Strain/Indicator: TA1535, Metabolic Activation: NONE, Method: STANDARD PLATE
  mutagenic call: inactive; negative
Test System: AMES SALMONELLA TYPHIMURIUM, Strain/Indicator: TA1535, Metabolic Activation: RAT, LIVER, S-9, AROCLOR 1254 (10%), Method: PREINCUBATION
  mutagenic call: inactive; negative
Test System: AMES SALMONELLA TYPHIMURIUM, Strain/Indicator: TA1535, Metabolic Activation: RAT, LIVER, S-9, AROCLOR 1254, Method: STANDARD PLATE
  mutagenic call: inactive; negative
Test System: AMES SALMONELLA TYPHIMURIUM, Strain/Indicator: TA1537, Metabolic Activation: HAMSTER, LIVER, S-9, AROCLOR 1254 (10%), Method: PREINCUBATION
  mutagenic call: inactive; negative
Test System: AMES SALMONELLA TYPHIMURIUM, Strain/Indicator: TA1537, Metabolic Activation: HAMSTER, LIVER, S-9, AROCLOR 1254, Method: STANDARD PLATE
  mutagenic call: inactive; negative
[8]
  mutagenic call: inactive; negative
[9]
  mutagenic call: inactive; negative
Test System: AMES SALMONELLA TYPHIMURIUM, Strain/Indicator: TA1537, Metabolic Activation: RAT, LIVER, S-9, AROCLOR 1254 (10%), Method: PREINCUBATION
  mutagenic call: inactive; negative
Test System: AMES SALMONELLA TYPHIMURIUM, Strain/Indicator: TA1537, Metabolic Activation: RAT, LIVER, S-9, AROCLOR 1254, Method: STANDARD PLATE
  mutagenic call: inactive; negative
Test System: AMES SALMONELLA TYPHIMURIUM, Strain/Indicator: TA1538, Metabolic Activation: HAMSTER, LIVER, S-9, AROCLOR 1254, Method: STANDARD PLATE
  mutagenic call: inactive; negative
Test System: AMES SALMONELLA TYPHIMURIUM, Strain/Indicator: TA1538, Metabolic Activation: HAMSTER, LIVER, S-9, Method: STANDARD PLATE
  mutagenic call: inactive; negative
Test System: AMES SALMONELLA TYPHIMURIUM, Strain/Indicator: TA1538, Metabolic Activation: NONE, Method: STANDARD PLATE
  mutagenic call: inactive; negative
Test System: AMES SALMONELLA TYPHIMURIUM, Strain/Indicator: TA1538, Metabolic Activation: RAT, LIVER, S-9, AROCLOR 1254, Method: STANDARD PLATE
  mutagenic call: inactive; negative
Test System: MOUSE LYMPHOMA, Strain/Indicator: L5178Y (TK+/TK-), Metabolic Activation: NONE, Method: SUSPENSION/PLATE
  mutagenic call: inactive; negative. reevaluation of results: negative
Test System: MOUSE LYMPHOMA, Strain/Indicator: L5178Y (TK+/TK-), Metabolic Activation: RAT, LIVER, S-9, AROCLOR 1254, Method: SUSPENSION/PLATE
  mutagenic call: inactive; negative. reevaluation of results: negative

## CCCCN(CCC(=O)OC)N=O
Test System: AMES SALMONELLA TYPHIMURIUM, Strain/Indicator: TA1535, Metabolic Activation: RAT, LIVER, S-9, KC500 OR PHENOBARBITAL, Method: LIQUID SUSPENSION
  mutagenic call: active; positive

## CN(C)CCNC(=O)c1cccc2c1Oc1ccccc1O2
[9]
  mutagenic call: active; positive
